Reference: patent publication US20250361239A1, “PROTEIN DEGRADERS AND USES THEREOF” (ZHUHAI YUFAN BIOTECHNOLOGIES CO., LTD., priority 2022, published 2025)

Key:
HL60 cells = experiment: HL60 cell killing experiment (CellTiter-Glo cell viability); format: cell-based; settings: CTG luminescence
Method: HL60 cell lines were purchased from ATCC (Cat #ATCC® CCL-240™), IMDM media were purchased from ATCC (Cat #ATCC® 30-2005™), FBS was purchased from Gibco (Cat #10091148), celltiter-glo luminescent cell viability assay was purchased from promega (Cat #G7572), and 96-well plates were purchased from corning (Cat #3610).
The effect of compounds on the growth of HL60 cells was determined by measuring cell viability. Firstly, cells in the logarithmic growth phase were collected and centrifuged, and the culture supernatant was discarded. The centrifuged cells were resuspended in a fresh complete medium, and the cell density was adjusted to 5×10^4 cells/mL. The resuspended cells were inoculated into two opaque 96-well cell culture plates at 100 μL of cell suspension per well, and the cell culture plates were incubated in a cell incubator at 37° C. for 4 h. After 4 h, dilutions (20 μL) of compounds with different concentrations were added. After one of the cell plates was cooled to room temperature, 60 μL of CTG reagent was added, and the luminescence values were read on the instrument as G0. The other one was incubated in a cell incubator for 48 h. After 48 h, 60 μL of CTG reagent was added, and the luminescence values were read on the instrument as G3.
According to the corresponding proliferation rate and concentration of each gradient concentration well, a gradient curve of cell proliferation was fitted using XLFit software, and the GI50 values of compounds were calculated.

GSPT1 = biological target: T1, GSPT1 (Homo sapiens, UniProt P15170+Q96SW2); experiment: Degradation of GSPT1 by the compounds (HiBiT signal in GSPT1/HEK293 hibit cells); format: cell-based; settings: 6 h incubation, Nano Glo HiBiT Lytic Detection
T1 construct: host or cells: HEK293
Method: GSPT1/HEK293 hibit cell lines were constructed by Shanghai BioDuro Co., Ltd., HEK293 cell lines were purchased from ATCC (Cat #ATCC® CRL-1573™), DMEM media were purchased from ATCC (Cat #ATCC® 30-2002™), FBS was purchased from Gibco (Cat #10091148), Nano Glo HiBiT Lytic Detection System was purchased from Promega (Cat #N3040), and 96-well plates were purchased from coming (Cat #3610).
The degradation of GSPT1 by the compounds was determined by measuring the intensity of hibit signals in cells. Firstly, the cells were digested with pancreatin, and the digestion was then terminated with medium. The cells were centrifuged, and the supernatant was discarded. The centrifuged cells were resuspended in a fresh complete medium, and the cell density was adjusted to 2.5×10^4 cells/mL. The resuspended cells were inoculated into an opaque 96-well cell culture plate at 100 μL of cell suspension per well, and the cell culture plate was incubated in a cell incubator at 37° C. overnight. The next day, dilutions (20 μL) of compounds with different concentrations were added, and the plate was incubated in a cell incubator for 6 h. After 6 h, 60 μL of Nano Glo HiBiT Lytic Detection System reagent was added and the luminescence values were read on the instrument.
According to the corresponding degradation rate and concentration of each gradient concentration well, a gradient curve of degradation rate was fitted using XLFit software, and the DC50 values of compounds were calculated.

[1] = Homo sapiens, HL-60, 48 h incubation

T1 sequence (P15170 whole entry): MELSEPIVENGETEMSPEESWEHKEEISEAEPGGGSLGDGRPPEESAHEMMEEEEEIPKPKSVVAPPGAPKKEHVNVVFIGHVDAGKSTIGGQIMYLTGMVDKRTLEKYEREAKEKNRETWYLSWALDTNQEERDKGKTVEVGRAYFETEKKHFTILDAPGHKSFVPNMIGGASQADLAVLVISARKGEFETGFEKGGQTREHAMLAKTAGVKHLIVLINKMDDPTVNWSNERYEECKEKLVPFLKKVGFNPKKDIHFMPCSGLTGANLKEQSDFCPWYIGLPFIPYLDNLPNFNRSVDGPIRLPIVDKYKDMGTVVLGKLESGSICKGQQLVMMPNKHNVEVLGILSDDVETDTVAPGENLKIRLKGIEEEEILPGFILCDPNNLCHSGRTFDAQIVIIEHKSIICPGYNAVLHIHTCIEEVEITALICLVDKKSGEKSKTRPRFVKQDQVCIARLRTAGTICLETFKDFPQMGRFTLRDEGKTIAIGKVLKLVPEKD
T1 sequence (Q96SW2 whole entry): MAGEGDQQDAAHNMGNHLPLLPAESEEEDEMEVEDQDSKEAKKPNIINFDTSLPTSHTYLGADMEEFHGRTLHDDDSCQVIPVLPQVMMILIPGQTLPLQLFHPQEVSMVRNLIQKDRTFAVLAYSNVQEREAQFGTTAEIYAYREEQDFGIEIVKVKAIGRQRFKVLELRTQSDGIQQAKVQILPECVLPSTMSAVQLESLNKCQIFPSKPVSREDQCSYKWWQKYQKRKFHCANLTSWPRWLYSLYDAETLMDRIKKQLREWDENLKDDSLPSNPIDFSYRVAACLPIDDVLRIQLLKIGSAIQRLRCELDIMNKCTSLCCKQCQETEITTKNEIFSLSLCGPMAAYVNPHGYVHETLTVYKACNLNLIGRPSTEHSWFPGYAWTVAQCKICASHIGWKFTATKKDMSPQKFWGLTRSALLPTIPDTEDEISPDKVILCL
T1 sequence (Q16531 whole entry partner): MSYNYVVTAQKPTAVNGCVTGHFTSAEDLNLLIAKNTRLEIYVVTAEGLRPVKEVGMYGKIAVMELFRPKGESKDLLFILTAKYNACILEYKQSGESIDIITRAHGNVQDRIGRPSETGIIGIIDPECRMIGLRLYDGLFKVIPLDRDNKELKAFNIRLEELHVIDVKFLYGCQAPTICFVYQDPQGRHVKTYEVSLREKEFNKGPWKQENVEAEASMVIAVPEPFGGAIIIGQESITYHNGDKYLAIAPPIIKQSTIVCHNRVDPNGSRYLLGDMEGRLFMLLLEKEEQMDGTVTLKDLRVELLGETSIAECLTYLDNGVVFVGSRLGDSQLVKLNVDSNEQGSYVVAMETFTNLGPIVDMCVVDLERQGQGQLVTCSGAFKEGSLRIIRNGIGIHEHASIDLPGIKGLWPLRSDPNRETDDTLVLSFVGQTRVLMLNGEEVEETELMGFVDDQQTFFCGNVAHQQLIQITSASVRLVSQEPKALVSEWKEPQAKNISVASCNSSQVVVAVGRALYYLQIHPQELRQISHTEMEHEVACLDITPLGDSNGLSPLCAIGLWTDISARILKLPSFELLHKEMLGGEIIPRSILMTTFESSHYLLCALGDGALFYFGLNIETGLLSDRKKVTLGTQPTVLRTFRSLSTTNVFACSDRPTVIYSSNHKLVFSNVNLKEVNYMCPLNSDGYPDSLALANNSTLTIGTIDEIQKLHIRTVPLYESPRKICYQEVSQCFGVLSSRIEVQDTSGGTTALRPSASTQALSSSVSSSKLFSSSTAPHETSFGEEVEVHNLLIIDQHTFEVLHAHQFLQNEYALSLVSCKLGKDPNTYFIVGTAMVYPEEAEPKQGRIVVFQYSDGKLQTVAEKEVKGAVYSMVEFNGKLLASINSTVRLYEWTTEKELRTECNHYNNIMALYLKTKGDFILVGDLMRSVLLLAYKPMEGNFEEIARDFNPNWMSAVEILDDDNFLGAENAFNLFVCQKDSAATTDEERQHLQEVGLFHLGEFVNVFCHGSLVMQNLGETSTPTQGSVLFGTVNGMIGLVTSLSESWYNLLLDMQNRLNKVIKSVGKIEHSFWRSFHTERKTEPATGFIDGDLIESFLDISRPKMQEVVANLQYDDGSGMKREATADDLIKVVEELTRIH

SMILES	DC50 (GSPT1) [nM]	GI50 (HL60 cells; [1]) [nM]	GI50 (HL60 cells; 48 h incubation) [nM]
O=C1CCC(N2C(=O)c3cccc(NCc4ccnc(C(=O)NC5CCC(c6nc7ccccc7[nH]6)CC5)c4)c3C2=O)C(=O)N1 (stereo not shown) [Example 19]	< 100	< 100	
CN(C(=O)c1cc(CNc2cccc3c2C(=O)N(C2CCC(=O)NC2=O)C3=O)ccn1)[C@H]1CC[C@H](c2nc3cccnc3s2)CC1 (stereo partly shown) [Example 79]	< 100	< 100	
Cn1c(C2CCC(NC(=O)c3cc(CNc4cccc5c4C(=O)N(C4CCC(=O)NC4=O)C5=O)ccn3)CC2)nc2ccccc21 (stereo not shown) [Example 35]	< 100	< 100	
Cn1cc(C2CCOCC2)c2c3nc(C4CCC(NC(=O)CCCCNc5cccc6c5C(=O)N(C5CCC(=O)NC5=O)C6=O)CC4)[nH]c3cnc21 (stereo not shown) [Example 112]	< 100	< 100	
COC1CCCC(NC(=O)c2cccc(CNc3cccc4c3C(=O)N(C3CCC(=O)NC3=O)C4=O)c2)C1 (stereo not shown) [Example 2]	< 100	< 100	
O=C1CCC(N2C(=O)c3cccc(NCCCCC(=O)NC4CCC(c5nc6ccncc6[nH]5)CC4)c3C2=O)C(=O)N1 (stereo not shown) [Example 6]	< 100	< 100	
O=C1CCC(N2C(=O)c3cccc(NCc4cccc(C(=O)NC5CCCC(F)C5)c4)c3C2=O)C(=O)N1 (stereo not shown) [Example 1]	< 100	< 100	
O=C1CCC(N2C(=O)c3cccc(NCCCCC(=O)NC4CCC(c5nc6c(cnc7[nH]ccc76)[nH]5)CC4)c3C2=O)C(=O)N1 (stereo not shown) [Example 29]	< 100	< 100	
Cn1c(C2CCC(NC(=O)c3cccc(CNc4cccc5c4C(=O)N(C4CCC(=O)NC4=O)C5=O)n3)CC2)nc2ccncc21 (stereo not shown) [Example 21]	< 100	< 100	

Continued, in another order:

DC50 (GSPT1) [nM]	SMILES	GI50 (HL60 cells; [1]) [nM]	GI50 (HL60 cells; 48 h incubation) [nM]
< 100	Cn1c(C2CCC(NC(=O)c3cccc(CNc4cccc5c4C(=O)N(C4CCC(=O)NC4=O)C5=O)c3)CC2)nc2ccccc21 (stereo not shown) [Example 33]	< 100	
< 100	CNc1ccc2c(c1)nc(C1CCC(NC(=O)c3cccc(CNc4cccc5c4C(=O)N(C4CCC(=O)NC4=O)C5=O)c3)CC1)n2C (stereo not shown) [Example 86]	< 100	
< 100	O=C1CCC(N2C(=O)c3cccc(NCc4ccnc(C(=O)NC5CCC(c6nc7ccccc7o6)CC5)c4)c3C2=O)C(=O)N1 (stereo not shown) [Example 22]	< 100	
< 100	O=C1CCC(N2C(=O)c3cccc(NCc4cccc(C(=O)NC5CCC(c6nsc7ccccc67)CC5)c4)c3C2=O)C(=O)N1 (single isomer, unassigned) [Example 53]		< 100
< 100	Cn1c(C2CCC(NC(=O)c3cccc(CNc4cccc5c4C(=O)N(C4CCC(=O)NC4=O)C5=O)c3)CC2)nc2c3cc[nH]c3ncc21 (stereo not shown) [Example 100]	< 100	
< 100	O=C1CCC(N2C(=O)c3cccc(NCc4cccc(C(=O)NC5CCC(c6nsc7ccccc67)CC5)c4)c3C2=O)C(=O)N1 (single isomer, unassigned) [Example 52]	< 100	
< 100	O=C1CCC(N2C(=O)c3cccc(NCc4cccc(C(=O)NC5CCC(c6csc7cncnc67)CC5)c4)c3C2=O)C(=O)N1 (stereo not shown) [Example 60]	< 100	
< 100	O=C1CCC(N2C(=O)c3cccc(NCc4cccc(C(=O)NC5CCC(c6cc7ccccc7s6)CC5)c4)c3C2=O)C(=O)N1 (stereo not shown) [Example 44]	< 100	
< 100	O=C1CCC(N2C(=O)c3cccc(NCc4cccc(C(=O)NC5CCC(c6cc7sccc7s6)CC5)c4)c3C2=O)C(=O)N1 (stereo not shown) [Example 66]	< 100	
< 100	O=C1CCC(N2C(=O)c3cccc(NCc4cccc(C(=O)NC5CCC(c6cc7ccccc7o6)CC5)c4)c3C2=O)C(=O)N1 (stereo not shown) [Example 12]	< 100	
< 100	CCn1c(C2CCC(NC(=O)c3cccc(CNc4cccc5c4C(=O)N(C4CCC(=O)NC4=O)C5=O)c3)CC2)nc2ccncc21 (stereo not shown) [Example 71]	< 100	
